Results: paper PMC7697615, “Selective Interactions of O-Methylated Flavonoid Natural Products with Human Monoamine Oxidase-A and -B” (Molecules, 2020)
“Also recorded” adds a separate entry of the source. Like-named read-outs stand apart in the source and are kept apart here.

What was measured:
MAO-A [1] = target: T1, MAO-A (Homo sapiens, UniProt P21397); assay: MAO inhibition assay (kynuramine oxidative deamination), MAO-A; assay type: biochemical; conditions: for SI b (Selectivity index: MAO-A IC50/MAO-B IC50): ratio of IC50 values
T1 construct: purchased BD Biosciences (Bedford, MA, USA)
T1 sequence (P21397 1-527): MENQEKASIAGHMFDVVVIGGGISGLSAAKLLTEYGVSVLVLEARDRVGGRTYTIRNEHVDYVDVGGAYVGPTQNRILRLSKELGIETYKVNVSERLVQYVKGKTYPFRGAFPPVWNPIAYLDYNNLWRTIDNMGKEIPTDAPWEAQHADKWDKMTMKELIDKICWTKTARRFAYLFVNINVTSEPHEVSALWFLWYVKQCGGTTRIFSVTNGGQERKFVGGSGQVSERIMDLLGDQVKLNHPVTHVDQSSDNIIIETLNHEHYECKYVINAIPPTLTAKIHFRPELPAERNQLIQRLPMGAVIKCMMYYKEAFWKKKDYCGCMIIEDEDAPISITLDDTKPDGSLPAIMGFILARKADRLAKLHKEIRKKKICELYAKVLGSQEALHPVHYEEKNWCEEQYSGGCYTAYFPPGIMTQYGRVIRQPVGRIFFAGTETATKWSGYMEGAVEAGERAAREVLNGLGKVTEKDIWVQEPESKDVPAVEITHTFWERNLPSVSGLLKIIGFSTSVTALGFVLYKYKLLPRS
Protocol: In this study, we have investigated the effect of the isolated constituents (1–6) on human recombinant MAO-A and -B. The kynuramine oxidation deamination assay was performed in 96-well plates as previously reported, with modification. A fixed concentration of kynuramine substrate and varying concentrations of test compounds or inhibitor were used to determine the IC50 values. Kynuramine concentrations for MAO-A and -B were 80 μM and 50 μM, respectively. […] The enzymatic reactions were initiated by the addition of MAO-A (5 μg/mL) or -B (12.5 μg/mL), and incubated for 20 min at 37 °C. The enzyme reactions were terminated by the addition of 78 μL of 2N NaOH. The formation of 4-hydroxyquinoline (the enzyme reaction end product) was recorded fluorometrically on a SpectraMax M5 fluorescence plate reader (Molecular Devices, Sunnyvale, CA, USA) with an excitation (320 nm) and emission (380 nm) wavelength, using the Soft MaxPro-6 program. The inhibition effects of enzyme activity were calculated as the percent of product formation compared to the corresponding controls (enzyme–substrate reaction) without inhibitors. The assay controls, to define the interference of the test compounds with the fluorescence measurements, were set up simultaneously, and the enzyme or the substrate was added after stopping the reaction.
(§1) The dose–response enzyme-inhibition curves were generated using Microsoft® Excel and the IC50 values were computed with XLfit®.

MAO-B [2] = target: T2, MAO-B (Homo sapiens, UniProt P27338); assay: MAO inhibition assay (kynuramine oxidative deamination), MAO-B; assay type: biochemical; set-up: purchased BD Biosciences (Bedford, MA, USA); conditions: kynuramine 50 μM; mean ± S.D. of at least triplicate observations
T2 sequence (P27338 1-520): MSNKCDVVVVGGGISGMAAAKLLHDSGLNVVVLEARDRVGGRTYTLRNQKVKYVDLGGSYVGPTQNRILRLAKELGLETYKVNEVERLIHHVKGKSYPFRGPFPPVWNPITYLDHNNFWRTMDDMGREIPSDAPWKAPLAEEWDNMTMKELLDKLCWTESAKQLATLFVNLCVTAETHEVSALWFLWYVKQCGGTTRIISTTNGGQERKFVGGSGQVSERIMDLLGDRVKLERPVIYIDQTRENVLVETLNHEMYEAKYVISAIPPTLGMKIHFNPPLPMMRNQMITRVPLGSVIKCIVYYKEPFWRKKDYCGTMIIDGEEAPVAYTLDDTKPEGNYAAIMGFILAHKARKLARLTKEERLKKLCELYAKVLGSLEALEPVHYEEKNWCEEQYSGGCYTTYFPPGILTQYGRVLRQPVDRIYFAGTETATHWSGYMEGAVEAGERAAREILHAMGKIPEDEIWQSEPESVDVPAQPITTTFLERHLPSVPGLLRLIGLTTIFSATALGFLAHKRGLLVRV
Protocol: In this study, we have investigated the effect of the isolated constituents (1–6) on human recombinant MAO-A and -B. The kynuramine oxidation deamination assay was performed in 96-well plates as previously reported, with modification. A fixed concentration of kynuramine substrate and varying concentrations of test compounds or inhibitor were used to determine the IC50 values. Kynuramine concentrations for MAO-A and -B were 80 μM and 50 μM, respectively. […] The enzyme reactions were terminated by the addition of 78 μL of 2N NaOH. The formation of 4-hydroxyquinoline (the enzyme reaction end product) was recorded fluorometrically on a SpectraMax M5 fluorescence plate reader (Molecular Devices, Sunnyvale, CA, USA) with an excitation (320 nm) and emission (380 nm) wavelength, using the Soft MaxPro-6 program. The inhibition effects of enzyme activity were calculated as the percent of product formation compared to the corresponding controls (enzyme–substrate reaction) without inhibitors. The assay controls, to define the interference of the test compounds with the fluorescence measurements, were set up simultaneously, and the enzyme or the substrate was added after stopping the reaction.
as §1

MAO-A [3] = target: T1, MAO-A; assay: Enzyme kinetics and mechanism study (Lineweaver-Burk), MAO-A; assay type: biochemical; conditions: for Type of Inhibition, Monoamine Oxidase-A: kinetics and dialysis
Protocol: (§3) Three sets of assays were completed at varying concentrations of the substrate for each experiment, one control without inhibitor and the others with two different concentrations of the inhibitor. The data were evaluated by double reciprocal Lineweaver-Burk plots for determination of the Ki (i.e., inhibition/binding affinity) values.
(§4) For determination of the binding affinity of the inhibitor (Ki) to MAO-A and -B, the enzyme assays were carried out at different concentrations of kynuramine substrate (1.90 μM to 500 μM) and varying concentrations of the inhibitors/compound. The flavonoids (1–6) were tested at 0.030–0.100 μM for MAO-A and 0.100–0.500 μM for -B. The controls without inhibitor were also run simultaneously. The results were analyzed by SigmaPlot version 10 using standard double reciprocal Lineweaver-Burk plots for computing Km and Vmax values, which were further analyzed to determine the Ki values [18, 36, 37].

MAO-B [4] = target: T2, MAO-B; assay: Enzyme-inhibitor complex equilibrium dialysis assay, MAO-B; assay type: binding; set-up: purchased BD Biosciences (Bedford, MA, USA); conditions: for MAO-B enzyme activity recovered after dialysis / inhibition at 50 µM: 50.0 μM; for inhibition at 50 µM: read-out: Inhibition of MAO-B activity on incubation (before dialysis); for Reversibility of binding with MAO-B: 20 min incubation, dialyzed overnight, 3, 4, 6 at 50.0 μM, deprenyl 0.500 μM
Protocol: (§2) Enzyme-inhibitors mostly produce inhibition of the target enzyme through the formation of an enzyme–inhibitor complex. The formation of the enzyme–inhibitor complex may be accelerated in the presence of a high concentration of the test inhibitor. The property of binding of test compounds to MAO-A or -B was determined by the formation of the enzyme–inhibitor complex by incubation of the enzyme with a high concentration of the test compound. This was followed by extensive equilibrium dialysis of the enzyme–inhibitor complex. Recovery of catalytic activity of MAO-A and -B was determined before and after the dialysis. […] After 20 min incubation at 37 °C, the reaction was stopped by chilling the tubes in an ice bath. […] All the samples with enzyme–inhibitor complex were individually dialyzed against potassium phosphate buffer (25 mM; pH 7.4) at 4 °C for 16–18 h (including three buffer changes). The control enzyme (without inhibitor) was also run through the same procedure and the activity of the enzyme was determined before and after the dialysis.

MAO-B [5] = target: T2, MAO-B; assay: Enzyme kinetics and mechanism study (Lineweaver-Burk), MAO-B; conditions: for Type of Inhibition, Monoamine Oxidase-B: kinetics and dialysis
Protocol: as §3, §4

MAO-B [6] = target: T2, MAO-B; assay: Time-dependent inhibition assay, MAO-B; assay type: biochemical; set-up: purchased BD Biosciences (Bedford, MA, USA); conditions: pre-incubation 0–15 min; 3 3.0 μM, 4 1.0 μM, 6 2.0 μM
Protocol: To investigate if the binding of the inhibitor with MAO-A and -B followed time-dependent inhibition kinetics, the enzyme was pre-incubated with the inhibitor for different time periods (0–15 min). […] The controls without inhibitors were also run simultaneously. The activities of the MAO-A and -B enzymes were determined as described above and the percentage of enzyme activity remaining was plotted against the pre-incubation time to determine time-dependent inhibition.

MAO-A [7] = target: T1, MAO-A; assay: Enzyme-inhibitor complex equilibrium dialysis assay, MAO-A; assay type: binding; conditions: 20 min incubation, dialyzed overnight; 1 10.0 μM, 2 25.0 μM, 3 25.0 μM, 5 100.0 μM
Protocol: as §2

[8] = kynuramine 80 μM, mean ± S.D. of at least triplicate observations, read-out: MAO-A IC50
[9] = double reciprocal plots, mean ± SD of three observations, read-out: Ki, Monoamine Oxidase-A

Structure (SMILES): COc1ccc(-c2oc3cc(O)cc(O)c3c(=O)c2OC)cc1 [Compound 1, 3,4′-di-O-methylkaempferol]
- Selectivity for MAO-A vs. MAO-B (MAO-A [1]): > 292 fold
- IC50 (MAO-A [1]; [8]): 33 ± 42 nM
- SI b (Selectivity index: MAO-A IC50/MAO-B IC50) (MAO-A [1]): 0.0034
- IC50 (MAO-B [2]): 9670 ± 2310 nM
- Ki (MAO-A [3]; [9]): 37.9 ± 0.8 nM
- Type of Inhibition, Monoamine Oxidase-A (MAO-A [3]): reversible-competitive; also recorded: Competitive/Reversible

Structure (SMILES): COc1cc(O)c(C(=O)/C=C/c2ccccc2)c(OC)c1 [Compound 2, 2′-hydroxy-4′,6′-dimethoxy-chalcone]
- IC50 (MAO-A [1]; [8]): 407 ± 75 nM
- IC50 (MAO-B [2]): 5930 ± 833 nM
- Ki (MAO-A [3]; [9]): 339 ± 219 nM
- Type of Inhibition, Monoamine Oxidase-A (MAO-A [3]): Competitive/Reversible

Structure (SMILES): COc1cc(O)cc(O)c1C(=O)/C=C/c1ccccc1 [Compound 3, 2′,4′-dihydroxy-6′-methoxy-chalcone]
- MAO-B enzyme activity recovered after dialysis (MAO-B [4]): 80%
- inhibition at 50 µM (MAO-B [4]): > 60%
- Reversibility of binding with MAO-B (MAO-B [4]): reversible; also recorded: reversibly
- IC50 (MAO-A [1]): 1170 ± 513 nM
- Selectivity for MAO-A vs. MAO-B (MAO-A [1]): ~ 2 fold
- SI b (Selectivity index: MAO-A IC50/MAO-B IC50) (MAO-A [1]): 0.432
- Ki (MAO-B [5]): 1240 ± 600 nM
- Type of Inhibition, Monoamine Oxidase-B (MAO-B [5]): reversible and competitive
- IC50 (MAO-B [2]): 2700 ± 794 nM
- Ki (MAO-A [3]): 633 ± 107 nM
- Type of Inhibition, Monoamine Oxidase-A (MAO-A [3]): reversible-competitive; also recorded: Competitive/Reversible
- Time dependence of MAO-B inhibition (MAO-B [6]): did not show time-dependent inhibition

Structure (SMILES): COc1cc2oc(-c3ccc(O)cc3)cc(=O)c2c(O)c1C [Compound 4, 8-demethylsideroxylin]
- MAO-B enzyme activity recovered after dialysis (MAO-B [4]): 80%
- inhibition at 50 µM (MAO-B [4]): > 60%
- Reversibility of binding with MAO-B (MAO-B [4]): reversible; also recorded: reversibly
- melting point: 275 to 277 °C
- IC50 (MAO-A [1]; [8]): 5170 ± 1110 nM
- SI b (Selectivity index: MAO-A IC50/MAO-B IC50) (MAO-A [1]): 6.451
- Ki (MAO-B [5]): 809 ± 93 nM
- Type of Inhibition, Monoamine Oxidase-B (MAO-B [5]): reversible and competitive
- IC50 (MAO-B [2]): 800 ± 180 nM
- Time dependence of MAO-B inhibition (MAO-B [6]): did not show time-dependent inhibition

Structure (SMILES): COc1ccc(-c2oc3cc(O)cc(O)c3c(=O)c2O)cc1 [Compound 5, 4′-O-methylkaempferol]
- IC50 (MAO-A [1]; [8]): 1350 ± 198 nM
- IC50 (MAO-B [2]): > 100000 nM
- Ki (MAO-A [3]; [9]): 3530 ± 265 nM
- Type of Inhibition, Monoamine Oxidase-A (MAO-A [3]): partially-reversible mixed-type
- Reversibility of binding with MAO-A (MAO-A [7]): partial reversibility; also recorded: partially reversible

Structure (SMILES): COc1cc(-c2cc(=O)c3c(O)cc(O)cc3o2)c(OC)c(OC)c1OC [Compound 6, 5,7-dihydroxy-2,3,4,5-tetramethoxyflavone]
- MAO-B enzyme activity recovered after dialysis (MAO-B [4]): 80%
- inhibition at 50 µM (MAO-B [4]): > 60%
- Reversibility of binding with MAO-B (MAO-B [4]): reversible; also recorded: reversibly
- IC50 (MAO-A [1]; [8]): 87500 ± 3540 nM
- SI b (Selectivity index: MAO-A IC50/MAO-B IC50) (MAO-A [1]): 100.0
- Ki (MAO-B [5]): 874 ± 69 nM
- Type of Inhibition, Monoamine Oxidase-B (MAO-B [5]): reversible and competitive
- IC50 (MAO-B [2]): 875 ± 35 nM
- Time dependence of MAO-B inhibition (MAO-B [6]): did not show time-dependent inhibition
